Experimental data from US20110305784A1, “Fractionated products obtained from gamboge resin, and medical uses of the same” (priority 2010, published 2011).
Values after ≈ are worked out from the molar mass of the structure shown. Marks after values point to notes of the source that are not given here.

How the values were obtained:
male Wistar rats [1] = assay: In vivo anti-inflammation test of the fractionated products TSB-14A to TSB-14E (carrageenan hind paw edema); conditions: aspirin positive control, oral, three hours after carrageenan injection
Experimental: Briefly, male Wistar rats with a weight of around 160±5 g were randomly divided into four groups (n=5 for each group) including two experimental groups (i.e., TSB-9-W1-1 group and TSB-9-W1-2 group) and two control groups (i.e., a vehicle normal control group and an aspirin positive control group). After overnight fasting, the rats in the TSB-9-W1-1 and the TSB-9-W1-2 groups were orally administered with the formulation TSB-9-W1 at a dose of 10 mg/Kg and a dose of 30 mg/Kg, respectively, the rats in the vehicle normal control group were orally administered with 2% Tween 80 at a dosing volume of 10 mL/Kg, and the rats in the aspirin positive control group were orally administered with aspirin at a dose of 150 mg/Kg. One hour later, 0.1 mL of a 1% carrageenan suspension was intraplantarly injected into the right hind paws of rats in each group. Three hours after the intraplantar injection, the volumes of the left and right hind paws of each rat were measured using a plethysmometer (#7150, UGO Basile, Italy) including a water cell (a diameter of 25 mm; #7157, UGO Basile, Italy), and the hind paw edema volume was expressed as the difference between the measured volumes of the left and right hind paws. Inhibition rate (%) of hind paw edema in each group of rats was calculated using the following Equation (2): […]

male Wistar rats [2] = assay: In vivo anti-inflammation test of formulation TSB-9-W1 (carrageenan hind paw edema); conditions: aspirin oral 150 mg/Kg, three hours after carrageenan injection
Experimental: Briefly, male Wistar rats with a weight of around 160±5 g were randomly divided into four groups (n=5 for each group) including two experimental groups ([…]1-1 group and TSB-9-W1-2 group) and two control groups (i.e., a vehicle normal control group and an aspirin positive control group). […] Three hours after the intraplantar injection, the volumes of the left and right hind paws of each rat were measured using a plethysmometer (#7150, UGO Basile, Italy) including a water cell (a diameter of 25 mm; #7157, UGO Basile, Italy), and the hind paw edema volume was expressed as the difference between the measured volumes of the left and right hind paws. […] D=(E-F)/E×100 (2) wherein D=inhibition rate of hind paw edema, • E=the average value of the hind paw edema volumes in the vehicle normal control group of rats, and • F=the average value of the hind paw edema volumes in each group of rats.

[3] = tested on: Human promyelocytic leukemia cell HL-60; assay: cells; conditions: for IC50: HL-60, read-out: IC50 (50% inhibition concentration); for CC50: HL-60, read-out: LC50 (50% lethal concentration)
Text: (§1) The in vitro anti-cancer test was primarily used to detect the effect of a candidate drug on cancer cell proliferation. The working principle involved therein is the ability of viable cells to shift alamarBlue (AbD Serotec, UK) from its originally non-fluorescent oxidized state (non-fluorescent, blue) to a reduced form (fluorescent, red) having fluorescence via metabolic reaction. According to the fluorescent data result generated by the alamarBlue reagent thus obtained, the proliferation of the viable cells and cell activity can be quantified for detection.
(§2) In the in vitro anti-cancer tests, a candidate drug was tested at 5 different concentrations of 0.01, 0.1, 1, 10, and 100 μg/ml, and six human cancer cell lines and a normal human cell line were used (see Table 10).

[4] = tested on: Human colon adenocarcinoma cell HT-29; assay: cells; conditions: for IC50: HT-29, read-out: IC50 (50% inhibition concentration); for CC50: HT-29, read-out: LC50 (50% lethal concentration)
Text: as §1, §2

[5] = tested on: Human histocytic lymphoma cell U937; assay: cells; conditions: for IC50: U-937, read-out: IC50 (50% inhibition concentration); for CC50: U-937, read-out: LC50 (50% lethal concentration)
Text: as §1, §2

[6] = tested on: Human breast adenocarcinoma cell MCF7; assay: cells; conditions: for IC50: MCF7, read-out: IC50 (50% inhibition concentration); for CC50: MCF7, read-out: LC50 (50% lethal concentration)
Text: as §1, §2

[7] = tested on: Human umbilical venal epithelial cell (HUVEC); assay: cells; conditions: Homo sapiens, HUVEC, read-out: IC50 (50% inhibition concentration)
Text: as §1, §2

[8] = tested on: Human lung carcinoma cell A549; assay: cells; conditions: for IC50: A549, read-out: IC50 (50% inhibition concentration); for CC50: A549, read-out: LC50 (50% lethal concentration)
Text: as §1, §2

[9] = tested on: Human hepatocellular carcinoma cell HepG2; assay: cells; conditions: for IC50: HepG2, read-out: IC50 (50% inhibition concentration); for CC50: HepG2, read-out: LC50 (50% lethal concentration)
Text: as §1, §2

in vitro = conditions: human
Text: as §1, §2

male CD-1 (Crl.) mice [10] = assay: In vivo analgesia test of formulation TSB-9-W (formalin, hind paw licking); conditions: morphine oral 30 mg/Kg
Experimental: The formulation TSB-9 was milled to obtain a formulation TSB-9-W having a particle size of around 10 μm, and an in vivo analgesia test of the formulation TSB-9-W was performed by the MDS Pharma Services.
Briefly, male CD-1 (Crl.) mice were randomly divided into three groups (n=5 for each group) including an experimental group (i.e., TSB-9-W group) and two control groups (i.e., a vehicle normal control group and a morphine positive control group). The mice in the TSB-9-W group were orally administered with the formulation TSB-9-W at a dose of 100 mg/Kg, the mice in the vehicle normal control group were orally administered with 2% Tween 80 at a dosing volume of 10 mL/Kg, and the mice in the morphine positive control group were orally administered with morphine at a dose of 30 mg/Kg. One hour later, 0.02 mL of a 2% formalin solution was subplantarly injected into the hind paws of mice in each group, and the hind paw licking times for each mouse were counted at the time intervals of 0-5 minutes and 15-30 minutes after formalin injection. Inhibition rate (%) of hind paw licking in each group of mice was calculated using the following Equation (1):
wherein A=inhibition rate of hind paw licking (%), • B=the average value of the hind paw licking times in the vehicle normal control group of mice, and • C=the average value of the hind paw licking times in each group of mice.

male CD-1 (Crl.) mice [11] = assay: In vivo analgesia test of the fractionated products TSB-14A to TSB-14E (formalin, hind paw licking); design: concentration or dose not given beside the values; conditions: morphine positive control, oral
[12] = 0-5 minutes after formalin injection

SMILES	IC50 [3]	CC50 [3]	IC50 [4]	CC50 [4]	IC50 [5]	CC50 [5]	IC50 [6]	CC50 [6]	IC50 [7]	IC50 [8]	CC50 [8]	IC50 [9]	CC50 [9]	CC50 (in vitro)	also measured
CC(=O)Oc1ccccc1C(=O)O [Aspirin, aspirin]															Inhibition rate of hind paw edema (%) (male Wistar rats [1]): 37* %; Inhibition rate of hind paw edema (%) (male Wistar rats [2]): 40* %
CC(C)=CCc1c2c(c(O)c3c1O[C@]14C(=C[C@@H]5CC1C(C)(C)OC4(C/C=C(/C)C(=O)O)C5=O)C3=O)C=C[C@@](C)(C/C=C/C(C)(C)O)O2 [Gh-3272, formoxanthone H]	1.7 µg/mL (≈ 2.64 µM)	5.1 µg/mL (≈ 7.91 µM)	0.36 µg/mL (≈ 0.558 µM)	6.6 µg/mL (≈ 10.2 µM)	0.16 µg/mL (≈ 0.248 µM)	0.43 µg/mL (≈ 0.667 µM)	0.73 µg/mL (≈ 1.13 µM)	2.8 µg/mL (≈ 4.34 µM)	0.12 µg/mL (≈ 0.186 µM)	1.7 µg/mL (≈ 2.64 µM)	4.7 µg/mL (≈ 7.29 µM)	1.2 µg/mL (≈ 1.86 µM)	3.7 µg/mL (≈ 5.74 µM)	2.5 µg/mL (≈ 3.88 µM)	
C=C(C)C(O)CC[C@]1(C)C=Cc2c(O)c3c(c(CC=C(C)C)c2O1)O[C@]12C(=C[C@@H]4CC1C(C)(C)OC2(C/C=C(/C)C(=O)O)C4=O)C3=O (some centres unmarked) [Gh-3291, formoxanthone D]	4.5 µg/mL (≈ 6.98 µM)	30 µg/mL (≈ 46.5 µM)	0.081 µg/mL (≈ 0.126 µM)	4.7 µg/mL (≈ 7.29 µM)	0.22 µg/mL (≈ 0.341 µM)	0.61 µg/mL (≈ 0.946 µM)	0.45 µg/mL (≈ 0.698 µM)	2.8 µg/mL (≈ 4.34 µM)	0.34 µg/mL (≈ 0.527 µM)	0.62 µg/mL (≈ 0.962 µM)	3.3 µg/mL (≈ 5.12 µM)	0.65 µg/mL (≈ 1.01 µM)	8.7 µg/mL (≈ 13.5 µM)	1.4 µg/mL (≈ 2.17 µM)	
CC(C)=CCC[C@@]1(C)C=Cc2c(O)c3c(c(C(O)C4OC4(C)C)c2O1)O[C@]12C(=C[C@@H]4CC1C(C)(C)OC2(C/C=C(/C)C(=O)O)C4=O)C3=O (some centres unmarked) [Gh-3311, epiformoxanthone G]	1.4 µg/mL (≈ 2.12 µM)	2.2 µg/mL (≈ 3.33 µM)	7.9 µg/mL (≈ 12 µM)	38 µg/mL (≈ 57.5 µM)	1.9 µg/mL (≈ 2.88 µM)	5.4 µg/mL (≈ 8.17 µM)	8 µg/mL (≈ 12.1 µM)	14 µg/mL (≈ 21.2 µM)	4 µg/mL (≈ 6.05 µM)	5 µg/mL (≈ 7.57 µM)	21.2 µg/mL (≈ 32.1 µM)	7.9 µg/mL (≈ 12 µM)	25.6 µg/mL (≈ 38.7 µM)	13.9 µg/mL (≈ 21 µM)	
CC(C)=CCc1c2c(c(O)c3c1O[C@]14C(=C[C@@H]5CC1C(C)(C)OC4(C/C=C(\C)C(=O)O)C5=O)C3=O)C=CC(C)(C/C=C\C(C)(C)O)O2 (some centres unmarked) [Gh-3332, isoformoxanthone I]	11.8 µg/mL (≈ 18.3 µM)	30.5 µg/mL (≈ 47.3 µM)	0.85 µg/mL (≈ 1.32 µM)	73.8 µg/mL (≈ 114 µM)	0.23 µg/mL (≈ 0.357 µM)	1.4 µg/mL (≈ 2.17 µM)	0.87 µg/mL (≈ 1.35 µM)	3.3 µg/mL (≈ 5.12 µM)	0.11 µg/mL (≈ 0.171 µM)	1.3 µg/mL (≈ 2.02 µM)	4.6 µg/mL (≈ 7.13 µM)	6.7 µg/mL (≈ 10.4 µM)	19.6 µg/mL (≈ 30.4 µM)	3.3 µg/mL (≈ 5.12 µM)	
CC(C)=CCC[C@@]1(C)C=Cc2c(O)c3c(c(CC4OC4(C)C)c2O1)O[C@]12C(=C[C@@H]4CC1C(C)(C)OC2(C/C=C(/C)C(=O)O)C4=O)C3=O (some centres unmarked) [Gh-3351, epiformoxanthone E]	11.7 µg/mL (≈ 18.1 µM)	22.1 µg/mL (≈ 34.3 µM)	1.9 µg/mL (≈ 2.95 µM)	72.6 µg/mL (≈ 113 µM)	0.24 µg/mL (≈ 0.372 µM)	0.62 µg/mL (≈ 0.962 µM)	0.99 µg/mL (≈ 1.54 µM)	3.8 µg/mL (≈ 5.89 µM)	0.11 µg/mL (≈ 0.171 µM)	0.77 µg/mL (≈ 1.19 µM)	3.4 µg/mL (≈ 5.27 µM)	2.9 µg/mL (≈ 4.5 µM)	31.2 µg/mL (≈ 48.4 µM)	3.3 µg/mL (≈ 5.12 µM)	
CC(C)=CCC[C@]1(C)C=Cc2c(O)c3c(c(CC4OC4(C)C)c2O1)O[C@]12C(=C[C@@H]4CC1C(C)(C)OC2(C/C=C(/C)C(=O)O)C4=O)C3=O (some centres unmarked) [Gh-3352, formoxanthone E]	0.26 µg/mL (≈ 0.403 µM)	0.93 µg/mL (≈ 1.44 µM)	0.18 µg/mL (≈ 0.279 µM)	0.68 µg/mL (≈ 1.05 µM)	0.11 µg/mL (≈ 0.171 µM)	0.26 µg/mL (≈ 0.403 µM)	0.075 µg/mL (≈ 0.116 µM)	1.8 µg/mL (≈ 2.79 µM)	0.084 µg/mL (≈ 0.13 µM)	0.18 µg/mL (≈ 0.279 µM)	0.99 µg/mL (≈ 1.54 µM)	0.16 µg/mL (≈ 0.248 µM)	2 µg/mL (≈ 3.1 µM)	0.85 µg/mL (≈ 1.32 µM)	
CC(C)=CCC[C@]1(C)C=Cc2c(O)c3c(c(C(O)C4OC4(C)C)c2O1)O[C@]12C(=C[C@@H]4CC1C(C)(C)OC2(C/C=C(/C)C(=O)O)C4=O)C3=O (some centres unmarked) [Gh-3353, formoxanthone G]	1.3 µg/mL (≈ 1.97 µM)	2.4 µg/mL (≈ 3.63 µM)	5 µg/mL (≈ 7.57 µM)	20.8 µg/mL (≈ 31.5 µM)	4.8 µg/mL (≈ 7.26 µM)	14.6 µg/mL (≈ 22.1 µM)	2.4 µg/mL (≈ 3.63 µM)	9.6 µg/mL (≈ 14.5 µM)	5.5 µg/mL (≈ 8.32 µM)	2.6 µg/mL (≈ 3.93 µM)	8.2 µg/mL (≈ 12.4 µM)	5.3 µg/mL (≈ 8.02 µM)	35.5 µg/mL (≈ 53.7 µM)	8.4 µg/mL (≈ 12.7 µM)	
CN1CC[C@]23c4c5ccc(O)c4O[C@H]2[C@@H](O)C=C[C@H]3[C@H]1C5 [Morphine, morphine]															Inhibition rate of hind paw licking (%) (male CD-1 (Crl.) mice [10]; [12]): 100* %; Inhibition rate of hind paw licking (%) (male CD-1 (Crl.) mice [10]; 15-30 minutes after formalin injection): 100* %; Inhibition rate of hind paw licking (%) (male CD-1 (Crl.) mice [11]; [12]): 62* %; Inhibition rate of hind paw licking (%) (male CD-1 (Crl.) mice [11]; 10-15 minutes after formalin injection): 89* %; Inhibition rate of hind paw licking (%) (male CD-1 (Crl.) mice [11]; 15-20 minutes after formalin injection): 81* %; Inhibition rate of hind paw licking (%) (male CD-1 (Crl.) mice [11]; 20-25 minutes after formalin injection): 68* %; Inhibition rate of hind paw licking (%) (male CD-1 (Crl.) mice [11]; 25-30 minutes after formalin injection): 0%
